Values of other authors in US6451782B1, “Use of 4-androstene-3alpha,17 beta-diol to increase testosterone levels in humans” (priority 2002, dated 2002).
Read-outs that look alike come from different tables or passages of the source.

Tests used:
[1] = in-vitro, rat liver preparations
[2] = in-vitro, chicken liver preparations
[3] = humans, intravenous, radio-labeled, urinary metabolites
[4] = humans

Row | Compound | identified metabolites [1] | identified metabolites [2] | metabolic relationship to testosterone [3] | pathway of metabolism to androstane metabolites [3] | time to peak concentration of active hormone (testosterone) ([4]; after administration of the precursor) [min] | period over which testosterone concentrations subsequently decline ([4]; after the peak)
1 | C[C@]12CC[C@H]3[C@@H](CCC4=C[C@H](O)CC[C@@]43C)[C@@H]1CC[C@@H]2O [4-androstene-3alpha, 17beta-diol] | androstenedione, epitestosterone and testosterone | androstenedione, epitestosterone and testosterone | direct precursor relationship to testosterone | involved first its conversion to a 3-keto steroid | – | –
2 | C[C@]12CC[C@H]3[C@@H](CCC4=CC(O)CC[C@@]43C)[C@@H]1CC[C@@H]2O (stereo partly drawn) [4-androstene-3,17beta-diol] | androstenedione, epitestosterone and testosterone | androstenedione, epitestosterone and testosterone | direct precursor relationship to testosterone | – | ≤ 90 | three to four
